Data as given in PubChem BioAssay (NCI).
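Test compounds were applied to cells in 96-well plates for 48 hours at 5 doses. Abbreviation: GI50, concentration required for 50% inhibition of growth. TGI is the concentration that stops growth completely.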

Columns and labels:
Assay in all cases: DTP human tumour cell line panel, 48 h
NCI-H23 lung = test system: NCI-H23 lung
786-0 renal = test system: 786-0 renal
TK-10 renal = test system: TK-10 renal
BT-549 breast = test system: BT-549 breast
UACC-62 melanoma = test system: UACC-62 melanoma
ACHN renal = test system: ACHN renal
SN12C renal = test system: SN12C renal
U251 CNS = test system: U251 CNS
SR leukemia = test system: SR leukemia
DU-145 prostate = test system: DU-145 prostate

Compound: Cc1nc2cc(NC(=O)CN3CCN(CCN4C(=O)c5cccc6cccc(c56)C4=O)CC3)ccc2s1
- GI50 (NCI-H23 lung): 6.6 µM
- TGI (NCI-H23 lung): 38.2 µM
- GI50 (786-0 renal): 5.91 µM
- TGI (786-0 renal): 19.1 µM
- GI50 (TK-10 renal): 7.91 µM
- TGI (TK-10 renal): 21.7 µM
- GI50 (BT-549 breast): 4.86 µM
- TGI (BT-549 breast): 24.1 µM
- GI50 (UACC-62 melanoma): 4.98 µM
- TGI (UACC-62 melanoma): 17.6 µM
- GI50 (ACHN renal): 3.5 µM
- TGI (ACHN renal): 25 µM
- GI50 (SN12C renal): 5.22 µM
- TGI (SN12C renal): > 100 µM
- GI50 (U251 CNS): 4.37 µM
- TGI (U251 CNS): 18.9 µM
- GI50 (SR leukemia): 1.19 µM
- TGI (SR leukemia): > 100 µM
- GI50 (DU-145 prostate): 5.21 µM
- TGI (DU-145 prostate): 17.1 µM

Compound: C/C(=C1/N=C(c2ccccc2)OC1=O)c1cccs1
- TGI (NCI-H23 lung): > 100 µM
- TGI (786-0 renal): > 100 µM
- TGI (TK-10 renal): > 100 µM
- TGI (BT-549 breast): > 100 µM
- TGI (UACC-62 melanoma): > 100 µM
- TGI (ACHN renal): > 100 µM
- TGI (SN12C renal): > 100 µM
- TGI (U251 CNS): > 100 µM
- TGI (SR leukemia): > 100 µM
- TGI (DU-145 prostate): > 100 µM

Compound: COc1ccc(/C=C2\CN(Cc3cn(CCCNc4ccnc5cc(Cl)ccc45)nn3)C/C(=C\c3ccc(OC)cc3)C2=O)cc1
- GI50 (NCI-H23 lung): 10.8 µM
- TGI (NCI-H23 lung): 34.5 µM
- GI50 (786-0 renal): 14.3 µM
- TGI (786-0 renal): 30.3 µM
- GI50 (TK-10 renal): 16.5 µM
- TGI (TK-10 renal): 30.1 µM
- GI50 (BT-549 breast): 3.78 µM
- TGI (BT-549 breast): 12.9 µM
- GI50 (UACC-62 melanoma): 16.3 µM
- TGI (UACC-62 melanoma): 32.1 µM
- GI50 (ACHN renal): 12.9 µM
- TGI (ACHN renal): 25.6 µM
- GI50 (SN12C renal): 13.1 µM
- TGI (SN12C renal): 33.8 µM
- GI50 (U251 CNS): 5.53 µM
- TGI (U251 CNS): 18.9 µM
- GI50 (SR leukemia): 1.69 µM
- TGI (SR leukemia): 7.47 µM
- GI50 (DU-145 prostate): 1.81 µM
- TGI (DU-145 prostate): 3.3 µM

Compound: COc1ccc(/C(C)=C(\c2ccc(Cl)cc2)c2ccc(OCCN3CCCCC3)cc2)cc1F
- GI50 (NCI-H23 lung): 2.78 µM
- TGI (NCI-H23 lung): 7.09 µM
- GI50 (786-0 renal): 2.69 µM
- TGI (786-0 renal): 5.3 µM
- GI50 (TK-10 renal): 3.49 µM
- TGI (TK-10 renal): 9.12 µM
- GI50 (BT-549 breast): 3.11 µM
- TGI (BT-549 breast): 7.47 µM
- GI50 (UACC-62 melanoma): 3.68 µM
- TGI (UACC-62 melanoma): 8.9 µM
- GI50 (ACHN renal): 4.93 µM
- TGI (ACHN renal): 14.4 µM
- GI50 (SN12C renal): 2.75 µM
- TGI (SN12C renal): 7.24 µM
- GI50 (U251 CNS): 2.68 µM
- TGI (U251 CNS): 6.51 µM
- GI50 (SR leukemia): 1.8 µM
- TGI (SR leukemia): > 16.7 µM
- GI50 (DU-145 prostate): 4.64 µM
- TGI (DU-145 prostate): 15 µM

Compound: Cn1c([N+](=O)[O-])cnc1/C=C1\Oc2ccc(Cl)cc2C1=O
- GI50 (NCI-H23 lung): 0.652 µM
- TGI (NCI-H23 lung): 4.47 µM
- GI50 (786-0 renal): 0.942 µM
- TGI (786-0 renal): 3.39 µM
- GI50 (TK-10 renal): 1.04 µM
- TGI (TK-10 renal): 2.77 µM
- GI50 (BT-549 breast): 1.2 µM
- TGI (BT-549 breast): 4.99 µM
- GI50 (UACC-62 melanoma): 1.24 µM
- TGI (UACC-62 melanoma): 3.27 µM
- GI50 (ACHN renal): 0.258 µM
- TGI (ACHN renal): 0.921 µM
- GI50 (SN12C renal): 0.738 µM
- TGI (SN12C renal): 3.46 µM
- GI50 (U251 CNS): 1.16 µM
- TGI (U251 CNS): 3.01 µM
- GI50 (SR leukemia): 0.0676 µM
- GI50 (DU-145 prostate): 0.402 µM
- TGI (DU-145 prostate): 1.32 µM

Compound: COc1cc(C2C3=C(COC3=O)N(CCO)c3cc4c(cc32)CCC4)cc(OC)c1OC (stereo not given)
- GI50 (NCI-H23 lung): 0.0903 µM
- GI50 (786-0 renal): 0.119 µM
- GI50 (TK-10 renal): 1.56 µM
- TGI (TK-10 renal): > 32.5 µM
- GI50 (BT-549 breast): 0.136 µM
- TGI (BT-549 breast): > 18.4 µM
- GI50 (UACC-62 melanoma): 0.0749 µM
- TGI (UACC-62 melanoma): > 32.5 µM
- GI50 (ACHN renal): 0.229 µM
- TGI (ACHN renal): > 32.5 µM
- GI50 (SN12C renal): 0.142 µM
- TGI (SN12C renal): > 32.5 µM
- GI50 (U251 CNS): 0.125 µM
- TGI (U251 CNS): > 32.5 µM
- GI50 (SR leukemia): 0.0692 µM
- TGI (SR leukemia): > 32.5 µM
- GI50 (DU-145 prostate): 0.0787 µM
- TGI (DU-145 prostate): 0.214 µM

Compound: Cn1c(N)cc(=O)nc1N
- TGI (NCI-H23 lung): > 100 µM
- TGI (786-0 renal): > 100 µM
- TGI (TK-10 renal): > 100 µM
- TGI (BT-549 breast): > 100 µM
- TGI (UACC-62 melanoma): > 100 µM
- TGI (ACHN renal): > 100 µM
- TGI (SN12C renal): > 100 µM
- TGI (U251 CNS): > 100 µM
- TGI (SR leukemia): > 100 µM
- TGI (DU-145 prostate): > 100 µM

Compound: COC(=O)[C@@H](C)C[C@H](Cc1ccccc1)NC(=O)c1cccc([C@@H](C[C@H](C(C)C)N(C)C(=O)[C@@H](NC(=O)[C@H]2CCCCN2C)C(C)C)OC(C)=O)n1
- GI50 (NCI-H23 lung): 0.0034 µM
- TGI (NCI-H23 lung): > 16.7 µM
- GI50 (786-0 renal): 0.00583 µM
- TGI (786-0 renal): > 16.7 µM
- TGI (TK-10 renal): > 16.7 µM
- GI50 (BT-549 breast): 0.0025 µM
- TGI (BT-549 breast): 0.101 µM
- GI50 (UACC-62 melanoma): < 0.00167 µM
- TGI (UACC-62 melanoma): > 16.7 µM
- GI50 (ACHN renal): < 0.00167 µM
- TGI (ACHN renal): > 16.7 µM
- GI50 (SN12C renal): 0.00266 µM
- TGI (SN12C renal): > 16.7 µM
- GI50 (U251 CNS): < 0.00167 µM
- TGI (U251 CNS): > 16.7 µM
- GI50 (SR leukemia): < 0.00167 µM
- TGI (SR leukemia): > 16.7 µM
- GI50 (DU-145 prostate): < 0.00167 µM

Compound: Oc1ccc(-c2nc(-c3ccc4oc5ccc(-c6[nH]c(-c7ccc(O)cc7)nc6-c6ccccc6)cc5c4c3)c(-c3ccccc3)[nH]2)cc1
- GI50 (NCI-H23 lung): 5.2 µM
- TGI (NCI-H23 lung): 33.7 µM
- GI50 (786-0 renal): 5.75 µM
- TGI (786-0 renal): 29.8 µM
- GI50 (TK-10 renal): 6.34 µM
- TGI (TK-10 renal): 19.2 µM
- GI50 (BT-549 breast): 18.8 µM
- TGI (BT-549 breast): 58.2 µM
- GI50 (UACC-62 melanoma): 14.7 µM
- TGI (UACC-62 melanoma): 46.8 µM
- GI50 (ACHN renal): 5.2 µM
- TGI (ACHN renal): 20.3 µM
- GI50 (SN12C renal): 3.39 µM
- TGI (SN12C renal): 27 µM
- GI50 (U251 CNS): 2.93 µM
- TGI (U251 CNS): 15 µM
- GI50 (SR leukemia): 1.98 µM
- TGI (SR leukemia): 5.17 µM
- GI50 (DU-145 prostate): 4.83 µM
- TGI (DU-145 prostate): 20.6 µM

Compound: O=C(CN1C(=O)c2ccccc2C1=O)NC1(C(=O)O)CCCC1
- TGI (NCI-H23 lung): > 100 µM
- TGI (786-0 renal): > 100 µM
- TGI (TK-10 renal): > 100 µM
- TGI (BT-549 breast): > 100 µM
- TGI (UACC-62 melanoma): > 100 µM
- TGI (ACHN renal): > 100 µM
- TGI (SN12C renal): > 100 µM
- TGI (U251 CNS): > 100 µM
- TGI (SR leukemia): > 100 µM
- TGI (DU-145 prostate): > 100 µM

Compound: Cn1cnc2nc(Cl)nc(Cl)c21
- GI50 (NCI-H23 lung): 10.4 µM
- TGI (NCI-H23 lung): 34.2 µM
- GI50 (786-0 renal): 1.01 µM
- TGI (786-0 renal): > 100 µM
- GI50 (TK-10 renal): 3.84 µM
- TGI (TK-10 renal): 26.2 µM
- GI50 (BT-549 breast): 10.7 µM
- TGI (BT-549 breast): 66.6 µM
- GI50 (UACC-62 melanoma): 1.79 µM
- TGI (UACC-62 melanoma): 19.7 µM
- GI50 (ACHN renal): 1.44 µM
- TGI (ACHN renal): 18.5 µM
- GI50 (SN12C renal): 3.37 µM
- TGI (SN12C renal): 24.1 µM
- GI50 (U251 CNS): 3.27 µM
- TGI (U251 CNS): 11.7 µM
- GI50 (SR leukemia): 0.599 µM
- TGI (SR leukemia): 28.7 µM
- GI50 (DU-145 prostate): 1.65 µM
- TGI (DU-145 prostate): 4.87 µM

Compound: CC(=O)OC1C(OC/C2=C/C3[C@@H](C(C)C)CC=C(C)[C@@H]3CC(OC(=O)/C=C/c3cn(C)cn3)[C@]3(C)C=C[C@@]2(O)O3)OCC(O)C1O (stereo not given in full)
- GI50 (NCI-H23 lung): 0.0227 µM
- TGI (NCI-H23 lung): > 50 µM
- GI50 (786-0 renal): 0.0441 µM
- TGI (786-0 renal): > 50 µM
- GI50 (TK-10 renal): 0.465 µM
- TGI (TK-10 renal): > 50 µM
- GI50 (BT-549 breast): 0.0129 µM
- TGI (BT-549 breast): 0.136 µM
- GI50 (UACC-62 melanoma): 0.0242 µM
- TGI (UACC-62 melanoma): > 50 µM
- GI50 (ACHN renal): 0.381 µM
- TGI (ACHN renal): > 50 µM
- GI50 (SN12C renal): 0.186 µM
- TGI (SN12C renal): > 50 µM
- GI50 (U251 CNS): 0.016 µM
- TGI (U251 CNS): > 30.3 µM
- GI50 (SR leukemia): 0.0292 µM
- TGI (SR leukemia): > 50 µM
- GI50 (DU-145 prostate): 0.0155 µM
- TGI (DU-145 prostate): 0.0475 µM

Compound: COc1cc2c(cc1Nc1nc(Nc3ccsc3C(N)=O)c3cc[nH]c3n1)N(C(=O)CN(C)C)CCC2
- GI50 (NCI-H23 lung): 0.343 µM
- TGI (NCI-H23 lung): 8.55 µM
- GI50 (786-0 renal): 3.13 µM
- TGI (786-0 renal): 6.95 µM
- GI50 (TK-10 renal): 1.46 µM
- TGI (TK-10 renal): 6.27 µM
- GI50 (BT-549 breast): 2.38 µM
- TGI (BT-549 breast): 6.43 µM
- GI50 (UACC-62 melanoma): 0.889 µM
- TGI (UACC-62 melanoma): 4.2 µM
- GI50 (ACHN renal): 2.67 µM
- TGI (ACHN renal): 6.06 µM
- GI50 (SN12C renal): 3.67 µM
- TGI (SN12C renal): 11.8 µM
- GI50 (U251 CNS): 1.14 µM
- TGI (U251 CNS): 12.8 µM
- GI50 (SR leukemia): 0.0123 µM
- TGI (SR leukemia): 3.44 µM
- GI50 (DU-145 prostate): 0.481 µM
- TGI (DU-145 prostate): 1.64 µM
